Converted amounts (≈) assume the structure as drawn. Like-named read-outs stand apart in the source and are kept apart here.
What was measured:
MT-4 cell RNA synthesis = assay: Incorporation of radiolabeled precursors into MT-4 cell RNA; type: cell-based; conditions: Homo sapiens
Excerpt: (§1) The radiolabeled nucleosides [methyl-^3 H]dThd (specific radioactivity: 40 Ci/mmol), [5-^3 H]dUrd (specific radioactivity: 27 Ci/mmol), [5-^3 H]dCyc (specific radioactivity: 18.2 Ci/mmol) and the radiolabeled amino acid L-[4,5-^3 H]leucine (specific radioactivity: 52 Ci/mmol were derived from the Radiochemcial Centre (Amersham, England); [5-^3 H]Urd (specific radioactivity: 21 Ci/mmol) and [5-^3 H]Cyd (specific radioactivity: 21 Ci/mmol) and were obtained from Moravek Biochemicals Inc. (Brea, Calif.)
(§2) The incorporation of [methyl-^3 H]dThd, [5-^3 H]dUrd, [5-^3 H]dCyd, [5-^3 H]Urd, [5-^3 H]Cyd and L-[4,5-^3 H]1eu into TCA-insoluble MT-4 cell material was measured in wells of a 96-well microtiter plate (Falcon-3072, Becton-Dickinson, New Jersey). To each well were added 10^5 MT-4 cells, 0.25 μCi of the radiolabeled precursor and a given amount of test compound. The cells were allowed to proliferate for 20 to 24 hr at 37° C. in a humidified, CO2 -controlled atmosphere. At the end of this incubation period, the contents of the wells (200 μl) were brought onto 25-mm glass fiber filters (type A/E, Gelman Instrument Company, Ann Arbor, Mich.), and mounted on a Millipore 3025 sampling manifold apparatus. The filters were washed twice with 2 ml and 5 ml cold NaCl/Pi (phosphte-buffered saline), twice with 2 and 5 ml cold 10% trichloroacetic acid (TCA), twice with 5 and 7.5 ml cold 5% TCA, and twice with 1 ml cold ethanol.

HIV-2 strain (EHO) = assay: Activity against HIV-2 strain EHO; type: cell-based
MT-4 cell DNA synthesis = assay: Incorporation of radiolabeled precursors into MT-4 cell DNA; type: cell-based; conditions: Homo sapiens
Excerpt: as §1, §2

MT-4 cells [1] = assay: Cytotoxicity for mock-infected MT-4 cells; conditions: at 100 μg/ml
Procedure: (§3) In order to evaluate the inhibitory effects against retrovirus-induced cytopathogenicity in MT-4cells, said cells (5×10^5 cells/ml) were suspended in fresh culture medium and infected with HIV-1, HIV-2 or SIOV at 100 times the cell culture infective dose-50 (CCID50) per ml cell suspension (1 CCID50 being the dose infective for 50% of the cell cultures). Then, 100 μl of the infected cell suspension were transferred to microplate wells, mixed with 100 μl of the appropriate dilutions of the test compounds, and further incubated at 37° C. After 5 days, the number of viable cells was determined in a blood cell-counting chamber by trypan blue staining for both virus-infected and mock-infected cell cultures.

[2] = Cytotoxicity for mock-infected MT-4 cells; conditions: human, mt-4 cells
Procedure: as §3

HIV-1 (HTLV-IIIB) = assay: Anti-retrovirus activity: inhibition of HIV-1-induced cytopathogenicity in MT-4 cells; type: cell-based; conditions: for EC50: Human immunodeficiency virus 1, IIIB; for S.I. (Selectivity Index): Table 1, CC50/EC50, MT-4 cells
Excerpt: The viruses used were moloney murine sarcoma virus (MSV), HIV-1 (strain HTLV-IIIB, kindly provided by R. C. Gallo and M. Popovic, National Cancer Institute, Bethesda, Md.), HIV-2 (strain LAV-2(ROD)), kindly provided by L. Montagnier (Pasteur Institute, Paris, France), simian immunodeficiency virus (SIV) (strain SIVMAC251, kindly provided by C. Bruck, RIT-Smith-Kline, Rixensart, Belgium).
as §3

[3] = system: MT-4 cell DNA, RNA or protein synthesis; assay: Incorporation of radiolabeled DNA, RNA or protein precursors into TCA-insoluble MT-4 cell material (summary in words); type: cell-based; conditions: at 100 μg/ml
Excerpt: as §1, §2

[4] = system: MT-4 cell protein synthesis; assay: Incorporation of radiolabeled leucine into MT-4 cell protein; type: cell-based; conditions: Homo sapiens
Excerpt: as §1, §2

[5] = Partition coefficient (Pa) between 1-octanol and 10 mM potassium phosphate buffer; type: physicochemical; conditions: 1-octanol / 10 mM potassium phosphate buffer, pH 7.5, 50 μM
Procedure: Partition of the test compounds between 1-octanol (Merck, Darmstadt, Germany) and 10 mM potassium phosphate buffer, pH, 7.5 (Merck), was measured as described in Balzarini et al., Biochem, Biophys. Res. Commun. 158: 413-422 (1989). Briefly, a 50 μM concentration of the test compound in potassium phosphate buffer was thoroughly mixed with an equal volume of 1-octanol for 30 min at room temperature. Then, the mixture was further equilibrated at room temperature and UV absorption was measured for the aqueous and alcoholic liquid phases. The partition coefficient (Pa) was calculated as the ratio of the compound concentration present in the 1-octanol phase to the compound concentration present in the aqueous phase.

HIV-1 = assay: Antiviral activity upon delayed addition to HIV-1-infected MT-4 cells; type: cell-based; conditions: for decrease of antiviral activity on delayed addition: addition delayed by 17-24 hours, data not shown; for antiviral activity on delayed addition: addition delayed by 41 to 48 hours
Procedure: as §3
Mt-4 cells were suspended in culture medium, infected with HIV-1 and brought into microplate wells as described above. […] After 5 days, the number of viable cells was determined and the EC50 and CC50 values for the test compounds were defined as described in example 1.

MT-4 cells [6] = assay: Cytotoxicity for MT-4 cells depending on exposure time; type: cell-based
Procedure: The toxicity of test compounds upon a 2-hr incubation period was determined by exposing MT-4 cells (3.5×10^5 cells/ml) to 100, 20, 4, 0.8 or 0.16 μg/ml of the test compounds for 2 hours at 37° C. Subsequently the cells were washed with culture medium. The pretreated cells were seeded in microplate wells at 70×10^3 cells/200 μl-well and allowed to grow for 3 days at 37° C. Control cultures received similar concentrations of the test compounds during the whole incubation period. Then, cells were counted in a Coulter counter (Harpenden Hertz, England) and the CC50 values were determined for each compound.
Mt-4 cells were suspended in culture medium, infected with HIV-1 and brought into microplate wells as described above.

HIV-1 mutant strains = assay: Resistance of HIV-1 strains selected against compounds 5, 6 and 7; type: cell-based
[7] = AIDS patients; cited from earlier work
[8] = target: reverse transcriptase enzyme of the TSAO-resistant HIV-1 strains (HIV-1 M:B_HXB2R, UniProt P04585, E725K); type: binding; conditions: Glu-138 to Lys
[9] = MT4, MT-4 cells, 20 to 24 hr, read-out: IC50, [5-3H]Cyd incorporation
[10] = MT4, MT-4 cells, 20 to 24 hr, read-out: IC50, [5-3H]Urd incorporation
[11] = MT4, MT-4 cells, 20 to 24 hr, read-out: IC50, [5-3H]dCyd incorporation
[12] = MT4, MT-4 cells, 20 to 24 hr, read-out: IC50, [5-3H]dUrd incorporation
[13] = MT4, MT-4 cells, 20 to 24 hr, read-out: IC50, [methyl-3H]dThd incorporation
[14] = MT4, MT-4 cells, 20 to 24 hr, read-out: IC50, L-[4,5-3H]leucine incorporation
[15] = MT4, read-out: 50% effective concentration (EC50)

SMILES | IC50 (MT-4 cell RNA synthesis; [9]) [µg/mL] | IC50 (MT-4 cell RNA synthesis; [10]) [µg/mL] | IC50 (MT-4 cell DNA synthesis; [11]) [µg/mL] | IC50 (MT-4 cell DNA synthesis; [12]) [µg/mL] | IC50 (MT-4 cell DNA synthesis; [13]) [µg/mL] | cytotoxicity to MT-4 cells (in words) (MT-4 cells [1]) | CC50 at 120 h [2] [µg/mL] | EC50 (HIV-1 (HTLV-IIIB); MT4, 120 h) [µg/mL] | S.I. (Selectivity Index) (HIV-1 (HTLV-IIIB)) | inhibition of incorporation of dThd, dUrd, dCyd, Urd, Cyd or leucine [3] | IC50 [4, 14] [µg/mL] | presence in the n-octanol phase compared to the aqueous phase [5] | logD at 50 µM ([5]; room temperature) | antiviral activity on delayed addition (HIV-1) | amino acid change in reverse transcriptase of HIV-1 strains selected for resistance (HIV-1 mutant strains) | also measured
CC(C)=CCn1c(=O)c(C)cn([C@@H]2O[C@H](CO[Si](C)(C)C(C)(C)C)[C@@]3(OS(=O)(=O)C=C3N)[C@H]2O[Si](C)(C)C(C)(C)C)c1=O [Compound 9, {1-[2', 5'-Bis-O-(tert-butyldimethylsilyl)-β-D-ribofuranosyl]-3-N-(3-methyl-2-butenyl)-thymine}-3'spiro-5"-{4"-amino-1", 2"-oxathiole-2", 2"-dioxide}] | > 100 | > 100 | > 100 | > 100 | > 100 | not cytotoxic | 73 (≈ 111 µM) | 0.239 (≈ 0.363 µM) | 252 | did not markedly inhibit | > 100 | – | – | – | – | activity against HIV-2 strain (EHO) (HIV-2 strain (EHO)): inactive
CC(C)(C)[Si](C)(C)OC[C@H]1O[C@@H](n2ccc(N)nc2=O)[C@H](O[Si](C)(C)C(C)(C)C)[C@]12OS(=O)(=O)C=C2N [Compound 14, {1-[2', 5'-Bis-O-(tert-butyldimethylsilyl)-β-D-ribofuranosyl]-cytosine}-3'-spiro-5"-{4"-amino-1",2"-oxathiole-2",2"-dioxide}] | > 100 | > 100 | > 100 | > 100 | > 100 | not cytotoxic | ≥ 200 | 0.439 (≈ 0.764 µM) | ≥ 456 | did not markedly inhibit | > 100 | more than 95% | > 1.3 | – | – | activity against HIV-2 strain (EHO) (HIV-2 strain (EHO)): inactive
Cc1cn([C@@H]2O[C@H](CO[Si](C)(C)C(C)(C)C)[C@@]3(OS(=O)(=O)C=C3N)[C@H]2O[Si](C)(C)C(C)(C)C)c(=O)[nH]c1=O [Compound 5, {1-[2', 5'-Bis-O-(tert-butyldimethylsilyl)-β-D-ribofuranosyl]thymine}-3'-spiro-5"-{4"-amino-1",2"-oxathiole-2", 2"-dioxide}] | – | – | – | – | – | not cytotoxic | 7.7 (≈ 13.1 µM) | – | – | – | – | more than 95% | > 1.3 | almost totally lost | glutamic acid change at position 138 to lysine | IC50 (MT-4 cell RNA synthesis; MT4, read-out: IC50, [5-3H]Cyd incorporation): 8 µg/mL (≈ 13.6 µM); IC50 (MT-4 cell RNA synthesis; MT4, read-out: IC50, [5-3H]Urd incorporation): 11 µg/mL (≈ 18.6 µM); decrease of antiviral activity on delayed addition (HIV-1): 10 fold; toxicity for MT-4 cells depending on contact time (MT-4 cells [6]; time of contact with the cells varied): not affected by the time that the compound had remained in contact with the cells; IC50 (MT-4 cell DNA synthesis; MT4, read-out: IC50, [5-3H]dCyd incorporation): 115 µg/mL (≈ 195 µM); IC50 (MT-4 cell DNA synthesis; MT4, read-out: IC50, [5-3H]dUrd incorporation): 9.1 µg/mL (≈ 15.4 µM); IC50 (MT-4 cell DNA synthesis; MT4, read-out: IC50, [methyl-3H]dThd incorporation): 13 µg/mL (≈ 22 µM); IC50 ([4]; MT4, read-out: IC50, L-[4,5-3H]leucine incorporation): 11.6 µg/mL (≈ 19.7 µM)
Cc1cn([C@H]2C[C@H](N=[N+]=[N-])[C@@H](CO)O2)c(=O)[nH]c1=O [AZT, 3'-Azido-3'-deoxythymidine, reference compound] | – | – | – | – | – | – | – | – | – | – | – | – | – | almost totally lost | – | cytostatic activity depending on exposure time (MT-4 cells [6]; data not shown): less cytostatic the shorter its exposure time to MT-4 cells; partition coefficient (Pa) ([5]; room temperature): 1.12; toxic side effects on long-term treatment [7]: bone marrow suppression
Cc1cn([C@@H]2O[C@H](CO[Si](C)(C)C(C)(C)C)[C@@]3(OS(=O)(=O)C=C3N)[C@H]2O[Si](C)(C)C(C)(C)C)c(=O)n(C)c1=O [Compound 6] | > 100 | > 100 | > 100 | > 100 | > 100 | not cytotoxic | 139 (≈ 230 µM) | 0.034 (≈ 0.0563 µM) | 4088 | did not markedly inhibit | > 100 | more than 95% | > 1.3 | almost totally lost | glutamic acid change at position 138 to lysine | decrease of antiviral activity on delayed addition (HIV-1): 10 fold; Selectivity Index (HIV-1 (HTLV-IIIB)): 4088; EC50 (HIV-1 (HTLV-IIIB); [15]): 0.034 µg/mL (≈ 0.0563 µM)
CCn1c(=O)c(C)cn([C@@H]2O[C@H](CO[Si](C)(C)C(C)(C)C)[C@@]3(OS(=O)(=O)C=C3N)[C@H]2O[Si](C)(C)C(C)(C)C)c1=O [Compound 7, {1-[2', 5'-Bis-O-(tert-butyldimethylsily)-62 -D-ribofuranosyl]-3-N-ethyl-thymine}-3'-spiro-5"-{4"-amino-1", 2"-oxathiole-2",2"-dioxide}] | – | – | – | – | – | – | 73 (≈ 118 µM) | 0.073 (≈ 0.118 µM) | 1000 | – | – | more than 95% | > 1.3 | – | glutamic acid change at position 138 to lysine | Selectivity Index (HIV-1 (HTLV-IIIB)): 1000; EC50 (HIV-1 (HTLV-IIIB); [15]): 0.073 µg/mL (≈ 0.118 µM)
Cc1ccnc2c1NC(=O)c1cccnc1N2C1CC1 [Nevirapine, reference compound] | – | – | – | – | – | – | – | – | – | – | – | – | – | – | – | affinity of mutated reverse transcriptase [8]: not for other HIV-1-specific compounds
